Laboratory results as given in patent US20240058387A1, “CULTURE MEDIUM COMPOSITION FOR AMPLIFYING AND MAINTAINING SELF-RENEWAL CAPACITY AND DIFFERENTIATION POTENTIAL OF HSCS AND APPLICATION THEREOF” (EDIGENE (GUANGZHOU) INC., priority 2020, published 2024).

Key:
[1] = system: umbilical cord blood-derived CD34+ cells; experiment: In vivo transplantation of in vitro cultured CD34+ cells into irradiated immunodeficient NPG mice; conditions: FIG. 8A, cells cultured with 1 μM AG1296 (SR1 5 μM), week 18 after transplantation
Experimental: On the umbilical cord blood-derived CD34+ cells sorted in Example 1, the effects of the screened small molecule inhibitor AG1296 and the inhibitor SR1 reported in the literature on the in vivo hematopoietic system reconstitution ability was compared.
Preparation of cell medium: SFEM II+100 ng/ml Flt-3L+100 ng/ml SCF+100 ng/ml TPO+20 ng/ml IL-6+1% bispecific antibody. Cat. numbers of the medium, growth factor, bispecific antibody, etc. were as described in Example 2. According to the groups set in Table 4, different small molecule inhibitors were added.
The prepared cell medium was added to a 24-well plate, 950 μl per well, and placing it in a carbon dioxide incubator to preheat; using SFEMII+100 ng/ml Flt-3L+100 ng/ml SCF+100 ng/ml TPO+20 ng/ml IL-6+1% bispecific antibody to resuspend the spare umbilical cord blood-derived HSCs of Example 1. The medium volume required to resuspend the cells was calculated according to 50 μl of cell suspension was added to each well, and 0.28*10^5/ml cell density per well was; taking out the preheated medium from the incubator, adding 50 μl of resuspended cell suspension to each well, mixing well, observing the cell state under a microscope, and then putting them into the incubator for culture. […]
The proportions of human CD45, human CD19, human CD3, human CD33 and human CD56 in mouse bone marrow cells were detected by flow cytometry. […]

[2] = system: mobilized peripheral blood-derived CD34+ cells; experiment: Flow cytometry detection of HSC stemness markers, comparison with UM171 and SR1; format: cell-based, human; conditions: FIG. 5A; 1 μM; 8 days
Experimental: According to the solubility and required solvent indicated in the instructions of the small molecule inhibitor (see Table 1 for the Cat. number of the small molecule inhibitor), the preparation of the small molecule inhibitor stock solution was carried out. Next, the hematopoietic stem cell medium was prepared: SFEM II medium (stem cell, Cat. number: 09655)+50 ng/ml growth factor Flt-3L (PeProtech, Cat. number: 300-100UG)+50 ng/ml growth factor SCF (PeProtech, Cat. number): 300-07-100UG)+50 ng/ml growth factor TPO (PeProtech, Cat. number: 300-18-100UG)+10 ng/ml interleukin IL-6 (PeProtech, Cat. number: 200-06-20UG)+1% bispecific antibody (HyClone, Cat. No.: sv30010). According to the set concentration gradient of the small molecule inhibitor, the stock solution and the basal medium were used to prepare the medium containing different concentrations of the small molecule inhibitor.
First, the prepared medium was added to a 24-well plate (Corning, Cat. number: 3473), 950 μl per well, and placing it in a carbon dioxide incubator (Thermo, model: 3111) to preheat; resuspending the spare umbilical cord Blood-derived HSCs of Example 1 with SFEM 11+50 ng/ml Flt-3L+50 ng/ml SCF+50 ng/ml TPO+10 ng/ml IL-6+1% bispecific antibody, calculating the medium volume to be added according to 50 μl cell suspension per well and 2*10^5/m1 cell density per well. For example, when the final volume of the cell culture solution per well was 1 ml, the total number of cells per well was 2*10^5 cells calculated according to the cell density per well, and the density of the […] of cell suspension supplemented to each well is 4*10^6/ml. The density of the spare HSCs of Example 1 was adjusted to the calculated density of the cell suspension, and adding it; taking out the preheated medium from the incubator, adding 50 μl of the cell suspension to each well, and after mixing, using the microscope (OLYMPUS, model: CKX53) to observe the cells state, and then putting it into an incubator for culturing.
20 μL of cells cultured for 6-8 days (D6-D8) in the above Example 2 was sampled for counting, taking out a suspension of 2*10^5 cells into a 1.5 ml centrifuge tube according to the counting result; centrifuging at 400 g for 5 min, discarding the supernatant. 100 μL of PBS (phosphate-buffered saline solution, HyClone, Cat. number: SH30256.01) containing 1% HSA (human serum albumin, Guangdong Shuanglin, Cat. number: S10970069) was taken, resuspending the cells, and vortexing to mix well for later use. Then, the cell sample in the control was collected. The number of cells and the collection method were the same as those of the sample cells to be tested. The controls were setting as the NC group and the ISO group respectively, selecting the cells from any sample or mixed cells of the samples to be tested in this batch of experiments, depending on the number of cells.
According to Table 3 above, the antibodies were added to the cell suspensions of the above-mentioned cell samples to be tested and control cell samples according to groups; vortexing to mix and incubating at room temperature for 15 min in the dark. After 15-min incubation, 1 ml of PBS containing 1% HSA was added to each test sample, mixing well, centrifuging at 400 g for 5 min at room temperature. After centrifugation, the supernatant was discarded, and the cells were resuspended in 100 μL of PBS containing 1% HSA for each test sample. Samples were stored at room temperature away from light before testing. […]

COc1cc2ncc(-c3ccccc3)nc2cc1OC [AG1296]
bone marrow transplantation efficiency (proportion of human CD45+ cells in mouse bone marrow cells) [1]: significantly higher than that of the Mock group and the SR1 group
maintaining the proportion of CD34+, CD34+CD90+, and CD34+CD90+CD45RA- cells, vs Mock, UM171 and lower AG1296 concentrations [2]: significantly more effective than Mock group, UM171 group, AG1296 (500 nM) group and AG1296 (700 nM) group
maintaining the proportion of CD34+, CD34+CD90+, and CD34+CD90+CD45RA- cells, vs SR1 group [2]: not as good as the SR1 group
proportion of LT-HSCs relative to AG1296 (500 nM) group and AG1296 (700 nM) group [2]: about 1 time
proportion of LT-HSCs relative to Mock group and UM171 group [2]: about 2 times
proportion of LT-HSCs, vs SR1 group [2]: not as good as SR1 group
